From patent publication US20040082635A1, “Fused cyclic compounds and medicinal use thereof” (priority 2001, published 2004) come the findings set out here.

This test concerns the target T1, HCV polymerase (Hepatitis C virus genotype 1b, UniProt P26663).
T1 construct: a region encoding NS5B (591 amino acids; J Virol 1991 Mar, 65(3), 1105-13) was amplified by PCR; 6 His (N); made in house; host or cells: Escherichia coli
In words: biochemical. Conditions: read-out: HCV polymerase inhibitory activity IC50.

Each structure is given as a SMILES string. pIC50: −log10 of the molar value. Structures can show the parent of a compound that is named as a salt.

T1 sequence (P26663 2420-3010): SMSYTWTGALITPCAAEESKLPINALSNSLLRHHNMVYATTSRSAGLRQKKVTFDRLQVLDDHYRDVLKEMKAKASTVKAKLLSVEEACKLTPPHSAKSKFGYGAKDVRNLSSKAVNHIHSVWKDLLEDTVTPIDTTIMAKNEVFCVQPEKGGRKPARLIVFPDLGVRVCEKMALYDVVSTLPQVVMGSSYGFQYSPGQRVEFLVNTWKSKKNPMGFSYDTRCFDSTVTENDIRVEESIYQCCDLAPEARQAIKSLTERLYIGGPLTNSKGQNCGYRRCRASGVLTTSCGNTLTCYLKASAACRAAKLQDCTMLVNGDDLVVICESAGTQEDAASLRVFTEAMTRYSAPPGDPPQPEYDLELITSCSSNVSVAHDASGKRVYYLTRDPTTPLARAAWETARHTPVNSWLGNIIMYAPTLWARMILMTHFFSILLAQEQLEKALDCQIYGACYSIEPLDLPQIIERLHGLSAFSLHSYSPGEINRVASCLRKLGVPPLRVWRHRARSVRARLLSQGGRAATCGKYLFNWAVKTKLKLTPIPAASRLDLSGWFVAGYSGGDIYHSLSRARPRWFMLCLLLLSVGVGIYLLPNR

As to `O=C(O)c1ccc2c(c1)nc(-c1ccc(OCc3ccccc3-c3ccc(C(F)(F)F)cc3)cc1)n2C1CCCCC1` [Example 117, 1-cyclohexyl-2-{4-[2-(4-trifluoromethylphenyl)benzyloxy]-phenyl}benzimidazole-5-carboxylic acid], the pIC50 is 7.12.
For the molecule `O=C(O)c1ccc2c(c1)nc(-c1ccc(OCc3cc(Cl)ccc3-c3cccnc3)cc1)n2C1CCCCC1` [Example 170, 2-{4-[3-chloro-6-(3-pyridyl)benzyloxy]phenyl}-1-cyclohexylbenzimidazole-5-carboxylic acid], the pIC50 is 7.32.
For the molecule `O=C(O)c1ccc2c(c1)cc(-c1ccc(OCc3ccccc3)cc1)n2C1CCCC1` [Example 503, 2-(4-benzyloxyphenyl)-1-cyclopentyl-1H-indole-5-carboxylic acid], the pIC50 is 6.71.
In the case of `CNc1nc(Oc2ccc(-c3nc4cc(C(=O)O)ccc4n3C3CCCCC3)cc2)nc(-c2cccc(Cl)c2)n1` [Example 236, 2-{4-[2-(3-chlorophenyl)-4-methylamino-1,3,5-triazin-6-yloxy]phenyl}-1-cyclohexylbenzimidazole-5-carboxylic acid trifluoroacetate], the pIC50 is 7.12.
The same measure for `O=C(O)c1ccc2c(c1)nc(-c1ccc(OC[C@@H]3CCCN3C(=O)OCc3ccccc3)cc1)n2C1CCCCC1` [Example 185, 2-{4-[{(2S)-1-benzyloxycarbonyl-2-pyrrolidinyl}methoxy]phenyl}-1-cyclohexylbenzimidazole-5-carboxylic acid]: 6.96; for `O=C(O)c1ccc2c(c1)nc(-c1ccc(OCc3cc(OCCN4CCC(O)CC4)ccc3-c3ccc(Cl)cc3)cc1)n2C1CCCCC1` [Example 370, 2-{4-[2-(4-chlorophenyl)-5-{2-(4-hydroxypiperidin-1-yl)ethoxy}benzyloxy]phenyl}-1-cyclohexylbenzimidazole-5-carboxylic acid hydrochloride]: 7.77; for `O=C(O)c1ccc2c(c1)nc(-c1ccc(OCc3ccc(C(=O)NCc4ccncc4)cc3-c3ccc(Cl)cc3)cc1)n2C1CCCCC1` [Example 356, 2-{4-[2-(4-chlorophenyl)-4-{(4-pyridylmethyl)carbamoyl}-benzyloxy]phenyl}-1-cyclohexylbenzimidazole-5-carboxylic acid]: 7.80.
On to `CC(C)(C)NS(=O)(=O)c1ccc(-c2ccc(Cl)cc2)c(COc2ccc(-c3nc4cc(C(=O)O)ccc4n3C3CCCCC3)cc2)c1` [Example 249, 2-{4-[3-(tert-butylsulfamoyl)-6-(4-chlorophenyl)benzyloxy]-phenyl}-1-cyclohexylbenzimidazole-5-carboxylic acid], for which the pIC50 was 7.66.
With `O=C(O)c1ccc2c(c1)nc(-c1ccc(Oc3ccccc3OCc3ccccc3)cc1)n2C1CCCCC1` [Example 104, 2-[4-(2-benzyloxyphenoxy)phenyl]-1-cyclohexylbenzimidazole-5-carboxylic acid], the pIC50 is 7.14.
Regarding `O=C(O)c1ccc2c(c1)nc(-c1ccc(OCc3cc(C(=O)N4CCC(O)CC4)ccc3-c3ccc(Cl)cc3)cc1)n2C1CCCC1` [Example 415, 2-{4-[2-(4-chlorophenyl)-5-(4-hydroxypiperidin-1-ylcarbonyl)benzyloxy]phenyl}-1-cyclopentylbenzimidazole-5-carboxylic acid hydrochloride], the pIC50 was 7.72.
As to `Cc1nc(-c2ccc(C(=O)O)cc2)c(COc2ccc(-c3nc4cc(C(=O)O)ccc4n3C3CCCCC3)cc2)s1` [Example 255, 1-cyclohexyl-2-{4-[{4-(4-carboxyphenyl)-2-methyl-5-thiazolyl}-methoxy]phenyl}benzimidazole-5-carboxylic acid hydrochloride], the pIC50 was 7.42.
As for `CN(C)C(=O)c1ccc(N2CCC[C@H]2COc2ccc(-c3nc4cc(C(=O)O)ccc4n3C3CCCCC3)cc2)cc1` [Example 228, 2-{4-[{(2S)-1-(4-dimethylcarbamoylphenyl)-2-pyrrolidinyl}-methoxy]phenyl}-1-cyclohexylbenzimidazole-5-carboxylic acid], the pIC50 was 6.74.
For the molecule `O=C(O)c1ccc2c(c1)nc(-c1ccc(OC(c3ccc(Cl)cc3)c3ccc(Cl)cc3)cc1)n2C1CCCCC1` [Example 118, 2-{4-[bis(4-chlorophenyl)methoxy]phenyl}-1-cyclohexylbenzimidazole-5-carboxylic acid], the pIC50 is 6.85.
Turning to `COc1cccc(Oc2ccc(-c3nc4cc(C(=O)O)ccc4n3C3CCCCC3)cc2)c1` [Example 109, 1-cyclohexyl-2-[4-(3-methoxyphenoxy)phenyl]benzimidazole-5-carboxylic acid], the pIC50 was 6.96.
As to `CC(C)(C)c1ccc(COc2cccc(Oc3ccc(-c4nc5cc(C(=O)O)ccc5n4C4CCCCC4)cc3)c2)cc1` [Example 212, 2-{4-[3-(4-tert-butylbenzyloxy)phenoxy]phenyl}-1-cyclohexylbenzimidazole-5-carboxylic acid], the negative logarithm of the IC50 (pIC50) is 6.64.
Turning to `CN(C)C(=O)c1cc(COc2ccc(-c3nc4cc(C(=O)O)ccc4n3C3CCCCC3)c(F)c2)c(-c2ccc(F)cc2)s1` [Example 431, 2-{4-[{2-(4-fluorophenyl)-5-(dimethylcarbamoyl)thiophen-3-yl}methoxy]-2-fluorophenyl}-1-cyclohexylbenzimidazole-5-carboxylic acid hydrochloride], the pIC50 is 7.82.
With `CONC(=O)c1ccc(-c2ccc(Cl)cc2)c(COc2ccc(-c3nc4cc(C(=O)O)ccc4n3C3CCCCC3)c(F)c2)c1` [Example 382, 2-{4-[2-(4-chlorophenyl)-5-(methoxycarbamoyl)benzyloxy]-2-fluorophenyl}-1-cyclohexylbenzimidazole-5-carboxylic acid hydrochloride], the pIC50 is 7.82.
On to `O=C(O)c1ccc2c(c1)nc(-c1ccc(Oc3ccc(OCc4ccccc4)cc3)cc1)n2C1CCCCC1` [Example 132, 2-[4-(4-benzyloxyphenoxy)phenyl]-1-cyclohexylbenzimidazole-5-carboxylic acid], for which the pIC50 was 7.26.
Regarding `COc1ccc(-c2ccc(Cl)cc2)c(COc2ccc(-c3nc4cc(C(=O)O)ccc4n3C3CCSCC3)c(F)c2)c1` [Example 276, 2-{4-[2-(4-chlorophenyl)-5-methoxybenzyloxy]-2-fluorophenyl}-1-(4-tetrahydrothiopyranyl)benzimidazole-5-carboxylic acid], the pIC50 was 7.64.
Regarding `O=C(O)c1ccc2c(c1)nc(-c1ccc(Oc3cccc(O)c3)cc1)n2C1CCCCC1` [Example 107, 1-cyclohexyl-2-[4-(3-hydroxyphenoxy)phenyl]benzimidazole-5-carboxylic acid], the pIC50 was 6.96.
On to `O=C(O)c1ccc2c(c1)nc(-c1ccc(OCc3cc(-c4nsc(=O)[nH]4)ccc3-c3ccc(Cl)cc3)cc1F)n2C1CCCCC1` [Example 376, 2-{4-[2-(4-chlorophenyl)-5-(2,5-dihydro-5-oxo-4H-1,2,4-thiadiazol-3-yl)benzyloxy]-2-fluorophenyl}-1-cyclohexylbenzimidazole-5-carboxylic acid hydrochloride], for which the pIC50 is 7.85.
Regarding `COc1ccc(Br)c(COc2ccc(-c3nc4cc(C(=O)O)ccc4n3C3CCCCC3)cc2)c1` [Example 180, 2-[4-(2-bromo-5-methoxybenzyloxy)phenyl]-1-cyclohexylbenzimidazole-5-carboxylic acid], the pIC50 is 6.96.
`CCCCNC(=O)c1ccc(-c2ccc(Cl)cc2)c(COc2ccc(-c3nc4cc(C(=O)O)ccc4n3C3CCCCC3)c(F)c2)c1` [Example 388, 2-{4-[5-(butylcarbamoyl)-2-(4-chlorophenyl)benzyloxy]-2-fluorophenyl}-1-cyclohexylbenzimidazole-5-carboxylic acid hydrochloride]: the pIC50 is 7.70.
As for `CC(C)NC(=O)c1ccc(-c2ccc(Cl)cc2)c(COc2ccc(-c3nc4cc(-c5noc(=O)[nH]5)ccc4n3C3CCCCC3)c(F)c2)c1` [Example 436, 2-{4-[2-(4-chlorophenyl)-5-(isopropylcarbamoyl)benzyloxy]-2-fluorophenyl}-1-cyclohexyl-5-(2,5-dihydro-5-oxo-4H-1,2,4-oxadiazol-3-yl)benzimidazole hydrochloride], the pIC50 was 7.59.
Consider `O=C(O)c1ccc2c(c1)nc(-c1ccc(OC[C@@H]3CCCN3S(=O)(=O)c3ccccc3)cc1)n2C1CCCCC1` [Example 193, 2-{4-[{(2S)-1-benzenesulfonyl-2-pyrrolidinyl}methoxy]phenyl}-1-cyclohexylbenzimidazole-5-carboxylic acid], for which the pIC50 was 6.89.
As to `CC(C)(C)OC(=O)N1CCC(COc2cccc(Oc3ccc(-c4nc5cc(C(=O)O)ccc5n4C4CCCCC4)cc3)c2)CC1` [Example 156, 2-{4-[3-{(1-tert-butoxycarbonyl-4-piperidyl)methoxy}phenoxy]-phenyl}-1-cyclohexylbenzimidazole-5-carboxylic acid], the negative logarithm of the IC50 (pIC50) is 6.64.
For `O=C(O)c1ccc2c(c1)nc(-c1ccc(Oc3cccc(OCc4ccccc4Cl)c3)cc1)n2C1CCCCC1` [Example 213, 2-{4-[3-(2-chlorobenzyloxy)phenoxy]phenyl}-1-cyclohexylbenzimidazole-5-carboxylic acid], the pIC50 is 7.00.
As to `CN(C)C(=O)c1ccc(-c2ccc(S(C)(=O)=O)cc2)c(COc2ccc(-c3nc4cc(C(=O)O)ccc4n3C3CCCCC3)cc2)c1` [Example 271, 2-{4-[3-dimethylcarbamoyl-6-(4-methanesulfonylphenyl)benzyloxy]-phenyl}-1-cyclohexylbenzimidazole-5-carboxylic acid hydrochloride], the pIC50 was 7.62.
For `O=C(O)c1ccc2c(c1)nc(-c1ccc(OCc3cc(NC(=O)N4CCOCC4)ccc3-c3ccc(Cl)cc3)cc1F)n2C1CCCCC1` [Example 392, 2-{4-[2-(4-chlorophenyl)-5-{(morpholinocarbonyl)amino}benzyloxy]-2-fluorophenyl}-1-cyclohexylbenzimidazole-5-carboxylic acid hydrochloride], the pIC50 was 7.85.
Turning to `CC(=O)Nc1ccc(N2CCC[C@H]2COc2ccc(-c3nc4cc(C(=O)O)ccc4n3C3CCCCC3)cc2)cc1` [Example 205, 2-{4-[{(2S)-1-(4-acetylaminophenyl)-2-pyrrolidinyl}methoxy]-phenyl}-1-cyclohexylbenzimidazole-5-carboxylic acid], the pIC50 is 7.11.

Broadly, the pIC50 is the negative decadic logarithm of the IC50, by convention in mol/L.
